Data from US10231980B2, “Cortexolone 17alpha-benzoate for use in the treatment of tumours” (COSMO TECHNOLOGIES LTD., priority 2014, dated 2019).
Where two headings read alike, the source gives them in different places.

Columns and labels:
[1] = system: HT29; test: MTT colorimetric assay on epithelial intestinal cancer cells; type: cell-based; conditions: human, 72 h
Experimental: The experiment was performed to test and define anticancer activity in vitro of Cortexolone 17α-benzoate and cortexolone 17α-valerate, 21-propionate on cell lines representatives of epithelial intestinal tumours, namely HT29. The experiment method consisted in: • 1. Monolayer HT-29 cells were plated in: 96-wells plates at the density of 2×10^4 cells/mL. The cells plated were kept at 37° C. in 5% CO2 and left to attach for 24 h. • 2. […] After 72 h of treatment, the MTT colorimetric assay was performed.

[2] = system: MCF7; test: In vitro proliferation / cytotoxic assay on breast cancer cells (Examples 14, 25)
Experimental: (§1) Data shown in Table I were fitted through sigmoidal dose response curves and analyzed using Prizm statistical.
For the cytotoxic assay, cells were seeded in 96-well flat bottom culture plates in media containing charcoal stripped serum. After 24 hours, test compounds were added to the cells. DMSO was used as the vehicle negative control and RU486 as the positive control. After 72 hour incubation, cells were harvested and lysed to determine cell viability using the Cell Titer Glow assay.

[3] = system: PC3; test: ATP-dependent cell viability assay (Cell Titer Glo), Example 12; conditions: for IC50: Homo sapiens
Text: as §1

[4] = system: MiaPaca2; test: as above; conditions: for IC50: Homo sapiens
Text: as §1

[5] = system: LNCaP; test: as above; conditions: for IC50: Homo sapiens
Text: as §1

[6] = system: Panc1; test: as above; conditions: for IC50: Homo sapiens
Text: as §1

[7] = system: stimulated PBMC; test: IC50 on stimulated (actively dividing) PBMC; type: cell-based, human; conditions: PBMC Stim; Table IV
[8] = system: 7 cancer cell lines; test: Therapeutic index over a panel of cancer cell lines; type: cell-based; conditions: average over the cancer cell lines of Table VII
Experimental: (§2) The compound toxicity was determined as follow:
(§3) Therapeutic Index=Safety/Potency=IC50 stimulated PBMC/IC50 cancer cell

[9] = system: Panc1 (AR+); test: ATP-dependent proliferation assay with 10 nM DHT, pancreatic cancer cells (Examples 3, 4, 7); conditions: for TI on Resting PBMC: IC50 resting PBMC / IC50 Panc1; for TI on Stimulated PBMC: IC50 stimulated PBMC / IC50 Panc1
Experimental: (§4) The experimental method consisted of: • 1. […] After 24 hrs, 10 nM DHT (dihydrotestosterone) with or without anti-androgen compounds, or DMSO vehicle (negative control) was added to the cultures. • 3.
(§5) Data from Experiment 1 were fitted through sigmoidal dose response curves and analyzed using Prizm statistical analysis software. […] The results from 2 sets of experiments follow.
(§6) Data from Experiment 1 was fitted through sigmoidal dose response curves and analyzed using Prizm statistical analysis software.

[10] = system: MiaPaca2 (AR low); test: as above; conditions: for TI on Resting PBMC: IC50 resting PBMC / IC50 MiaPaca2; for TI on Stimulated PBMC: IC50 stimulated PBMC / IC50 MiaPaca2
Experimental: as §4, §5, §6

[11] = system: MiaPaca-2 pancreatic tumor xenograft; test: Human pancreatic tumor xenograft in nude mice; type: in vivo
Experimental: Cortexolone 17α-benzoate and Cyproterone Acetate were separately diluted in DMSO/2-hydroxypropyl β-cyclodextrin (vehicle).
The test was carried out comparing the anti-tumor activity of cortexolone 17α-benzoate at two different dosages (8.0 mg/kg, corresponding approximately at 230 μM, and 40 mg/kg, corresponding approximately at 1150 μM), versus the vehicle (i.e. 0.4% (v/v) tween 80 and 0.5% (w/v) carboxymethylcellulose in normal saline) and versus the comparator Cyproterone Acetate at two different dosages (7.4 mg/kg and 37 mg/kg).
1×10^6 MiaPaca-2 cells suspended in matrigel were sub-cutaneously injected into 6 week old athymic nude mice.
The treatment with the tested compounds, with the vehicle and with the comparative compound, was initiated after the tumor volume has reached 50 mm^3 after transplantation. All compounds were injected 100 μL/mouse of low dose solution (approximately 230 μM) or 100 μL/mouse of high dose solution (approximately 1150 μM) of cortexolone 17α-benzoate, vehicle and Cyproterone Acetate, respectively. Compounds and controls were administered subcutaneously daily for 28 days.
Tumors were measured every 4 days with a digital caliper.
The results are plotted in FIG. 1 as average change in tumor volume relative to the start of treatment. Tumor volume was calculated according to the formula 0.5236(r1)^2(r2) where r1<r2.
Error bars are the SEM for 7 to 10 mice per treatment group. P values were calculated according to the Student's t test.
Cortexolone 17α-valerate-21-propionate and Cyproterone Acetate were separately diluted in DMSO/2-hydroxypropyl β-cyclodextrin (vehicle).
The test was carried out comparing the anti-tumor activity of cortexolone 17α-valerate-21-propionate at two different dosages (approximately 8.6 mg/kg and 43 mg/kg) versus the vehicle (i.e. 0.4% (v/v) tween 80 and 0.5% (w/v) carboxymethylcellulose in normal saline) and versus the comparator Cyproterone Acetate at two different dosages (7.4 mg/kg and 37 mg/kg).
1×10^6 MiaPaca-2 cells suspended in matrigel were subcutaneously injected into 6 week old athymic nude mice.
The treatment with the tested compound, with the vehicle and with the comparative compound was initiated after the tumor has reached a volume of 50 mm^3 after implantation, injecting subcutaneously 100 μL/mouse of low dose solution (approximately 230 μM) or 100 μL/mouse of high dose solution (approximately 1150 μM) of cortexolone 17α-valerate-21-propionate, vehicle and Cyproterone Acetate, respectively. Compounds and controls were administered subcutaneously daily for 28 days. Tumors were measured every 4 days with a digital caliper.
The results are plotted in FIG. 2 as average change in tumor volume relative to the start of treatment. Tumor volume was calculated according to the formula 0.5236(r1)^2(r2) where r1<r2.
Cyproterone acetate (CPA), a well-known anti-androgen, was used as control. Briefly 1×10^6 MiaPaca2 cells suspended in matrigel were subcutaneously (sc) injected into 6 week old male athymic nude mice. Tumors were measured every 4 days with a digital caliper. Tumor volume was calculated according to the formula: 0.5236(r1)2(r2) where r1<r2. Treatment with CB-03-06 and control compounds were initiated after the tumor had reached 50 mm^3. Compounds diluted in DMSO/2-hydroxypropyl b-cyclodextrin (vehicle) were subcutaneously injected daily (100 microL/mouse) at the concentration of 40 mg/Kg daily for 28 consecutive days.

[12] = system: stimulated PBMC; test: IC50 on stimulated (actively dividing) PBMC; type: cell-based, human; conditions: Homo sapiens, PBMC, PBMC STIMULATED; Table IV; read-out: In vitro proliferation IC50
Experimental: as §2, §3

[13] = PC-3, 72 h, PC3, Tables I and II, titrated 3 uM to 200 uM, 3 days
[14] = PC-3, read-out: In vitro proliferation IC50, PC3, Table IV
[15] = LNCaP, read-out: In vitro proliferation IC50
[16] = Experiment 1, 0 = higher toxicity in PBMC

CCCC(=O)OC1(C(=O)CO)CCC2C3CCC4=CC(=O)CC[C@]4(C)C3=CC[C@@]21C (single isomer, unassigned) [CB-03-04]
Therapeutic Index = IC50 resting PBMC/IC50 cancer cell [1]: 7
Therapeutic Index = IC50 stimulated PBMC/IC50 cancer cell [1]: 7
Therapeutic Index = IC50 resting PBMC/IC50 cancer cell ([2]; human, 3 days): 4
Therapeutic Index = IC50 stimulated PBMC/IC50 cancer cell ([2]; human, 3 days): 4
IC50 [3, 13]: 135 µM
IC50 [3, 14]: 140 µM
Therapeutic Index = IC50 resting PBMC/IC50 cancer cell ([3]; human, 3 days): 3
Therapeutic Index = IC50 stimulated PBMC/IC50 cancer cell ([3]; human, 3 days): 3
Therapeutic Index = IC50 resting PBMC/IC50 cancer cell ([4]; human, 3 days): 2
Therapeutic Index = IC50 stimulated PBMC/IC50 cancer cell ([4]; human, 3 days): 2
IC50 ([5]; LNCaP, 72 h): 46 µM
IC50 [5, 15]: 46 µM
Therapeutic Index = IC50 resting PBMC/IC50 cancer cell ([5]; human, 3 days): 8
Therapeutic Index = IC50 stimulated PBMC/IC50 cancer cell ([5]; human, 3 days): 8
Therapeutic Index = IC50 resting PBMC/IC50 cancer cell ([6]; human, 3 days): 1
Therapeutic Index = IC50 stimulated PBMC/IC50 cancer cell ([6]; human, 3 days): 1
Therapeutic Index = IC50 resting PBMC/IC50 cancer cell [7]: 1
Therapeutic Index = IC50 stimulated PBMC/IC50 cancer cell, AVERAGE [8]: 4

CCC(=O)O[C@]1(C(=O)CO)CC[C@H]2[C@@H]3CCC4=CC(=O)CC[C@]4(C)[C@H]3CC[C@@]21C [CB-03-01, cortexolone 17α-propionate]
Therapeutic Index = IC50 resting PBMC/IC50 cancer cell ([2]; human, 3 days): 0
Therapeutic Index = IC50 stimulated PBMC/IC50 cancer cell ([2]; human, 3 days): 0
IC50 [3, 13]: 190 µM
IC50 [3, 14]: 190 µM
Therapeutic Index = IC50 resting PBMC/IC50 cancer cell ([3]; human, 3 days): 0
Therapeutic Index = IC50 stimulated PBMC/IC50 cancer cell ([3]; human, 3 days): 0
Therapeutic Index = IC50 resting PBMC/IC50 cancer cell ([4]; human, 3 days): 0
Therapeutic Index = IC50 stimulated PBMC/IC50 cancer cell ([4]; human, 3 days): 0
IC50 ([5]; LNCaP, 72 h): 33 µM
IC50 [5, 15]: 33 µM
Therapeutic Index = IC50 resting PBMC/IC50 cancer cell ([5]; human, 3 days): 0
Therapeutic Index = IC50 stimulated PBMC/IC50 cancer cell ([5]; human, 3 days): 0
Therapeutic Index = IC50 resting PBMC/IC50 cancer cell ([6]; human, 3 days): 0
Therapeutic Index = IC50 stimulated PBMC/IC50 cancer cell ([6]; human, 3 days): 0
Therapeutic Index = IC50 resting PBMC/IC50 cancer cell [7]: 1
Therapeutic Index = IC50 stimulated PBMC/IC50 cancer cell, AVERAGE [8]: 0

CC(=O)O[C@]1(C(C)=O)CC[C@H]2[C@@H]3C=C(Cl)C4=CC(=O)[C@@H]5C[C@@H]5[C@]4(C)[C@H]3CC[C@@]21C [Cyproterone Acetate, reference compound]
Therapeutic Index = IC50 resting PBMC/IC50 cancer cell ([2]; MCF7, Table IV): 1
Therapeutic Index = IC50 stimulated PBMC/IC50 cancer cell ([2]; MCF7, Table VII): 1
IC50 [3, 13]: 90 µM
IC50 [3, 14]: 90 µM
Therapeutic Index = IC50 resting PBMC/IC50 cancer cell ([3]; PC3, Table IV): 1
Therapeutic Index = IC50 stimulated PBMC/IC50 cancer cell ([3]; PC3, Table VII): 1
Therapeutic Index = IC50 resting PBMC/IC50 cancer cell ([4]; MiaPaca2, Table IV): 2
Therapeutic Index = IC50 stimulated PBMC/IC50 cancer cell ([4]; MiaPaca2, Table VII): 2
IC50 ([5]; LNCaP, 72 h): 22 µM
IC50 [5, 15]: 22 µM
Therapeutic Index = IC50 resting PBMC/IC50 cancer cell ([5]; LNCaP, Table IV): 3
Therapeutic Index = IC50 stimulated PBMC/IC50 cancer cell ([5]; LNCaP, Table VII): 3
Therapeutic Index = IC50 resting PBMC/IC50 cancer cell ([6]; Panc1, Table IV): 1
Therapeutic Index = IC50 stimulated PBMC/IC50 cancer cell ([6]; Panc1, Table VII): 1
Therapeutic Index = IC50 resting PBMC/IC50 cancer cell [7]: 1
TI on Resting PBMC [9, 16]: 0
TI on Resting PBMC ([9]; Experiment 2): 4
TI on Stimulated PBMC [9, 16]: 1
TI on Stimulated PBMC ([9]; Experiment 2): 1
TI on Resting PBMC [10, 16]: 0
TI on Resting PBMC ([10]; Experiment 2): 1
TI on Stimulated PBMC [10, 16]: 2
TI on Stimulated PBMC ([10]; Experiment 2): 2
Therapeutic Index = IC50 stimulated PBMC/IC50 cancer cell, AVERAGE [8]: 1
pancreatic tumor size relative to the size when treatment was initiated ([11]; Example 5, MiaPaca-2 xenograft, nude mice, SC daily 28 days, high dose of cortexolone 17α-benzoate (40 mg/kg)): 12 fold
pancreatic tumor size relative to the initial tumor size ([11]; Example 6, MiaPaca-2 xenograft, nude mice, SC daily 28 days, for the time of treatment): ≥ 12 fold
pancreatic tumor size relative to the initial size ([11]; Example 22, MiaPaca2 xenograft, male nude mice, 40 mg/Kg SC daily 28 days, treatment period): 12 fold
Median survival ([11]; Example 22, MiaPaca2 xenograft, 40 mg/Kg SC daily 28 days): 40 days

CCCC(=O)OCC(=O)[C@@]1(OC(=O)CCC)CCC2C3CCC4=CC(=O)CC[C@]4(C)C3CC[C@@]21C (stereo partly drawn) [CB-03-03]
IC50 ([2]; Homo sapiens, MCF7, read-out: In vitro proliferation IC50): 32 µM
Therapeutic Index = IC50 resting PBMC/IC50 cancer cell ([2]; human, 3 days): 4
Therapeutic Index = IC50 stimulated PBMC/IC50 cancer cell ([2]; human, 3 days): 4
IC50 [3, 13]: 53 µM
IC50 [3, 14]: 53 µM
Therapeutic Index = IC50 resting PBMC/IC50 cancer cell ([3]; human, 3 days): 3
Therapeutic Index = IC50 stimulated PBMC/IC50 cancer cell ([3]; human, 3 days): 3
IC50 ([4]; MIA PaCa-2, 72 h): 30 µM
IC50 ([4]; MIA PaCa-2, read-out: In vitro proliferation IC50): 30 µM
Therapeutic Index = IC50 resting PBMC/IC50 cancer cell ([4]; human, 3 days): 5
Therapeutic Index = IC50 stimulated PBMC/IC50 cancer cell ([4]; human, 3 days): 5
IC50 ([5]; LNCaP, 72 h): 16 µM
IC50 [5, 15]: 16 µM
Therapeutic Index = IC50 resting PBMC/IC50 cancer cell ([5]; human, 3 days): 9
Therapeutic Index = IC50 stimulated PBMC/IC50 cancer cell ([5]; human, 3 days): 9
IC50 ([6]; PANC-1, 72 h): 70 µM
IC50 ([6]; PANC-1, read-out: In vitro proliferation IC50): 70 µM
Therapeutic Index = IC50 resting PBMC/IC50 cancer cell ([6]; human, 3 days): 2
Therapeutic Index = IC50 stimulated PBMC/IC50 cancer cell ([6]; human, 3 days): 2
Therapeutic Index = IC50 resting PBMC/IC50 cancer cell [7]: 1
Therapeutic Index = IC50 stimulated PBMC/IC50 cancer cell, AVERAGE [8]: 4
IC50 [12]: 140 µM
